Columns and labels:
[1] = tested on: Col1a1; test: Col1a1 (collagen) gene expression by RT-PCR in fibroblasts; format: cell-based, mouse; details: NIH3T3 cells, peptide 1, 10, 50 μM, 24 hours; FIGS. 1A, 1B
Method: First, NIH3T3 cells (mouse fibroblast cell line) were seeded in a 6-well plate at a cell density of 3×10^5 cell/well, and then the cells were cultured in DMEM medium containing 10% fetal bovine serum (FBS) for 24 hours. The cultured cells were washed once with serum free DMEM medium, and the peptide of the present invention was mixed in 1 mL of the serum free DMEM medium at each of concentrations of 1, 10, and 50 μM, and dispensed into the cells. A positive control (PC) was treated with 5 ng/ml of TGF-β1 instead of the above peptide. The cells were cultured in a CO2 incubator at 37° C. for 24 hours.
The cultured cells were washed twice with PBS, and RNA was extracted from the cells using easy blue (iNtRON, Cat. No.: 17061, Korea). The amount of RNA extracted was quantified, 1,000 ng of RNA was added per tube, and RT reaction was performed using a kit (enzynomics, Cat. No.: PT200, Korea). RT-PCR was performed using a PCR kit (enzynomics, Cat. No.: […], Korea). The sequences of the primers of collagen, fibronectin, and elastin used in RT-PCR and the sequence of the primer of GAPDH used to compare the total RNA amount of each treatment group are shown in [Table 2].

[2] = tested on: Fibronectin; test: Fibronectin mRNA level decreased by UV irradiation, RT-PCR in fibroblasts; format: cell-based, mouse; details: NIH3T3 cells, 8 J/cm^2 UVA, peptide 1, 10, 50 μM, 6 hours after irradiation; FIGS. 5A, 5C
Method: The expression of genes related to extracellular matrix components is inhibited when irradiated with UV.
(§1) First, NIH3T3 cells were seeded in a 6-well plate at a cell density of 5×10^5 cell/well, and then the cells were cultured in DMEM medium containing 10% fetal bovine serum (FBS) for 24 hours. The cultured cells were washed once with serum free DMEM medium, and then the peptide of the present invention was mixed in 1 mL of the serum free DMEM medium at each of concentrations of 1, 10, and 50 μM, and dispensed into the cells. A positive control (PC) was treated with 50 μM of Quercetin instead of the above peptide. The cells were cultured in a CO2 incubator at 37° C. for 1 hour.
The medium of the cultured cells was transferred to a tube (e-tube), 1 ml of PBS was added, and irradiation was performed with 8 J/cm^2 of UVA using a UV irradiator (VILBER LOURMAT, Cat No.: 3102-BSU, France). After removing PBS, 900 μL of the medium transferred to the tube was dispensed, and culture was performed in a CO2 incubator at 37° C. for 6 hours. The cultured cells were washed twice with PBS, and then RNA was extracted from the cells using easy blue (iNtRON, Cat. No.: 17061, Korea). The amount of RNA extracted was quantified, 1,000 ng of RNA was added per tube, and RT reaction was performed using a kit (enzynomics, Cat. No.: RT200, Korea). […]

[3] = tested on: AQP3; test: AQP3 mRNA level decreased by UV irradiation, RT-PCR in keratinocytes; format: cell-based, human; details: HaCaT cells, 20 mJ/cm^2 UVB, peptide 1, 10, 50 μM, 4 hours after irradiation; FIGS. 7A, 7C
Method: The expression of genes related to aging is inhibited when irradiated with UV.
as §1, with “First, HaCaT” for “First, NIH3T3”, “with 2.5 mM” for “with 50 μM”, “of N-Acetylcysteine (NaC)” for “of Quercetin”, “peptide.” for “peptide. The cells were cultured in a CO2 incubator at 37° C. for 1 hour.”
The cells were cultured in a CO2 incubator at 37° C. for 1 hour. The medium of the cultured cells was transferred to a tube (e-tube), 1 ml of PBS was added, and irradiation was performed with 20 mJ/cm^2 of UVB using a UV irradiator (VILBER LOURMAT, Cat No.: 3102-BSU, France). After removing PBS, 900 μL of the medium transferred to the tube was added, and culture was performed in a CO2 incubator at 37° C. for 4 hours. The cultured cells were washed twice with PBS, and then RNA was extracted from the cells using easy blue (iNtRON, Cat. No.: 17061, Korea). The extracted RNA was subjected to RT reaction using a kit (enzynomics, Cat. No.: RT200, Korea). Thereafter, RT-PCR was performed using a PCR kit (enzynomics, Cat. No.: R581T, Korea). […]

Question: What does the source list for LCACCLHNCNECQ?
Answer: expression of the collagen (Col1a1) gene [1]: gradually increased as a concentration of the peptide increased; mRNA level of fibronectin decreased by UV irradiation [2]: increased again; mRNA level of AQP3 decreased by UV irradiation [3]: increased again

Source: patent US20240407993A1, “PEPTIDE HAVING ANTI-AGING ACTIVITY, AND USE THEREOF” (CAREGEN CO., LTD., priority 2021, published 2024)
